Test system: E12 mesencephalic precursor cultures
Test: Dopaminergic / neuronal subtype differentiation of expanded mesencephalic precursor cultures (TH+ cell counts by immunohistochemistry)
Assay type: cell-based, rat
Conditions: under both oxygen conditions
Source text: Culture of CNS Stem Cells. Animals were housed and treated following NIH guidelines. Cells dissected from rat embryonic lateral ganglionic eminence (E14) or mesencephalon (E12) were mechanically dissociated, plated on plastic 24-well plates (Costar) or 12 mm glass cover slips (Carolina Biologicals) precoated with polyornithine/fibronectin, and grown in defined medium with bFGF (Studer et al., 1998; Johe et al., 1996). In general, bFGF was withdrawn from the medium after 4-6 days of culture. Clonal assays were carried out in plastic 48-well plates (Costar). In some studies, recombinant human (rh)EPO, rhVEGF165 or recombinant mouse (rm)FGF8b, or their neutralizing antibodies (all from R&D Systems) were added to cultures at the following concentrations: EPO 0.5 U/ml, EPO neutralizing antibody 10 μg/ml, FGF8 250 ng/ml, FGF8b neutralizing antibody 5 μg/ml, VEGF 50 ng/ml, VEGF neutralizing antibody 0.5 μg/ml. […]
Immunohistochemistry. […] Appropriate fluorescence-tagged (Jackson Immunoresearch) or biotinylated (Vector Laboratories) secondary antibodies followed by metal-enhanced DAB reaction (Pierce) were used for visualization.
Cell Counts and Statistical Procedures. Uniform random sampling procedures were used for cell counts and quantified using the fractionator technique (Gundersen, et al., 1988). […] Data are expressed as mean±SEM.

sonic hedgehog
effect on expanded mesencephalic precursors (dopaminergic neuron differentiation): no effect

— US6610540B1, “Low oxygen culturing of central nervous system progenitor cells” (California Institute of Technology, priority 1998, dated 2003)
